# Laboratory results as given in PubChem BioAssay AID2060614 (Molecular Pharmacology Branch, DTP, NCI, 2025).
# Values joined by “and” are separate entries in the source; they are usually repeats but may differ in a detail not shown here. Identical values can stand only once.
# Test system: 598228-144-R-J1-PDC complex spheroids, viability
# Experiment: Anticancer human tumor 598228-144-R-J1-PDC patient-derived serous endometrial adenocarcinoma cell line growth inhibition [CLK]
# Conditions: for viability, T/C: stronger effect = lower value
# How it was run: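 Multi-cell-type spheroids combined patient-derived tumor cells with HUVEC endothelial cells and human mesenchymal stem cells. Paired agents were dosed in half-log steps down from about clinical Cmax, or from 10 microM where Cmax was unknown.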
# [1] = curve of first compound, second compound 0.0316 µM
# [2] = curve of first compound, second compound 0.1 µM
# [3] = curve of first compound, second compound 0.316 µM
# [4] = curve of first compound, second compound 1 µM
# [5] = curve of first compound, second compound 3.16 µM
# [6] = curve of first compound, second compound 10 µM
# [7] = second compound 0.0316 µM, first compound 0.0316 µM
# [8] = second compound 0.0316 µM, first compound 0.1 µM
# [9] = second compound 0.0316 µM, first compound 0.316 µM
# [10] = second compound 0.0316 µM, first compound 1 µM
# [11] = second compound 0.0316 µM, first compound 3.16 µM
# [12] = second compound 0.0316 µM, first compound 10 µM
# [13] = second compound 0.1 µM, first compound 0.0316 µM
# [14] = second compound 0.1 µM, first compound 0.1 µM
# [15] = second compound 0.1 µM, first compound 0.316 µM
# [16] = second compound 0.1 µM, first compound 1 µM
# [17] = second compound 0.1 µM, first compound 3.16 µM
# [18] = second compound 0.1 µM, first compound 10 µM
# [19] = second compound 0.316 µM, first compound 0.0316 µM
# [20] = second compound 0.316 µM, first compound 0.1 µM
# [21] = second compound 0.316 µM, first compound 0.316 µM
# [22] = second compound 0.316 µM, first compound 1 µM
# [23] = second compound 0.316 µM, first compound 3.16 µM
# [24] = second compound 0.316 µM, first compound 10 µM
# [25] = second compound 1 µM, first compound 0.0316 µM
# [26] = second compound 1 µM, first compound 0.1 µM
# [27] = second compound 1 µM, first compound 0.316 µM
# [28] = second compound 1 µM, first compound 1 µM
# [29] = second compound 1 µM, first compound 3.16 µM
# [30] = second compound 1 µM, first compound 10 µM
# [31] = second compound 3.16 µM, first compound 0.0316 µM
# [32] = second compound 3.16 µM, first compound 0.1 µM
# [33] = second compound 3.16 µM, first compound 0.316 µM
# [34] = second compound 3.16 µM, first compound 1 µM
# [35] = second compound 3.16 µM, first compound 3.16 µM
# [36] = second compound 3.16 µM, first compound 10 µM
# [37] = second compound 10 µM, first compound 0.0316 µM
# [38] = second compound 10 µM, first compound 0.1 µM
# [39] = second compound 10 µM, first compound 0.316 µM
# [40] = second compound 10 µM, first compound 1 µM
# [41] = second compound 10 µM, first compound 3.16 µM
# [42] = second compound 10 µM, first compound 10 µM
# 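Also: spheroids exposed to compounds for seven days before readout.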
# 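For viability, T/C in this document: 100% = DMSO vehicle control wells.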
compound,measurement,setting,value
CCCS(=O)(=O)Nc1ccc(F)c(C(=O)c2c[nH]c3ncc(-c4ccc(Cl)cc4)cc23)c1F + CNC(=O)c1ccc(Nc2nc(OC3CCCC3)c3c(-c4ccc5nc(C)oc5c4)c[nH]c3n2)c(OC)c1,IC50,[1],9990 nM
same,IC50,[2],> 10000 nM
same,IC50,[3],9640 nM
same,IC50,[4],> 10000 nM
same,IC50,[5],> 10000 nM
same,IC50,[6],9060 nM
same,"viability, T/C",[7],117%
same,"viability, T/C",[8],104%
same,"viability, T/C",[9],113%
same,"viability, T/C",[10],105%
same,"viability, T/C",[11],93.5%
same,"viability, T/C",[12],49.5%
same,"viability, T/C",[13],102%
same,"viability, T/C",[14],101%
same,"viability, T/C",[15],102%
same,"viability, T/C",[16],111%
same,"viability, T/C",[17],115%
same,"viability, T/C",[18],51.6%
same,"viability, T/C",[19],99.4%
same,"viability, T/C",[20],105%
same,"viability, T/C",[21],87.2%
same,"viability, T/C",[22],100%
same,"viability, T/C",[23],83.5%
same,"viability, T/C",[24],48.6%
same,"viability, T/C",[25],96.5%
same,"viability, T/C",[26],104%
same,"viability, T/C",[27],94.8%
same,"viability, T/C",[28],99.3%
same,"viability, T/C",[29],88.4%
same,"viability, T/C",[30],57.1%
same,"viability, T/C",[31],86.7%
same,"viability, T/C",[32],83.9%
same,"viability, T/C",[33],91.7%
same,"viability, T/C",[34],102%
same,"viability, T/C",[35],83.3%
same,"viability, T/C",[36],55%
same,"viability, T/C",[37],89%
same,"viability, T/C",[38],82.5%
same,"viability, T/C",[39],92.5%
same,"viability, T/C",[40],99.6%
same,"viability, T/C",[41],67.5%
same,"viability, T/C",[42],48.4%
CCCS(=O)(=O)Nc1ccc(F)c(C(=O)c2c[nH]c3ncc(-c4ccc(Cl)cc4)cc23)c1F + CN1CCN(c2cc(C(=O)Nc3cc4cc(-c5cnn(C)c5)ccc4cn3)ccn2)CC1,IC50,[1],> 10000 nM
same,IC50,[2],> 10000 nM
same,IC50,[3],< 31.6 nM
same,IC50,[4],< 31.6 nM
same,IC50,[5],< 31.6 nM
same,IC50,[6],< 31.6 nM
same,"viability, T/C",[7],114%
same,"viability, T/C",[8],136%
same,"viability, T/C",[9],119%
same,"viability, T/C",[10],145%
same,"viability, T/C",[11],115%
same,"viability, T/C",[12],71%
same,"viability, T/C",[13],132%
same,"viability, T/C",[14],144%
same,"viability, T/C",[15],111%
same,"viability, T/C",[16],131%
same,"viability, T/C",[17],112%
same,"viability, T/C",[18],72.5%
same,"viability, T/C",[19],20.5%
same,"viability, T/C",[20],23.8%
same,"viability, T/C",[21],19.9%
same,"viability, T/C",[22],15.7%
same,"viability, T/C",[23],17.3%
same,"viability, T/C",[24],15.5%
same,"viability, T/C",[25],1.62%
same,"viability, T/C",[26],1.8%
same,"viability, T/C",[27],2.03%
same,"viability, T/C",[28],1.5%
same,"viability, T/C",[29],2.94%
same,"viability, T/C",[30],4.26%
same,"viability, T/C",[31],2.08%
same,"viability, T/C",[32],6.53%
same,"viability, T/C",[33],1.71%
same,"viability, T/C",[34],2.24%
same,"viability, T/C",[35],5.08%
same,"viability, T/C",[36],7.6%
same,"viability, T/C",[37],1.08%
same,"viability, T/C",[38],0.79%
same,"viability, T/C",[39],1.22%
same,"viability, T/C",[40],1.42%
same,"viability, T/C",[41],3.13%
same,"viability, T/C",[42],6.03%
CCc1c2c(nc3ccc(O)cc13)-c1cc3c(c(=O)n1C2)COC(=O)[C@]3(O)CC,"viability, T/C",compound 0.00316 µM,54.7% and 48.2%
same,"viability, T/C",compound 0.01 µM,61.4% and 56.1%
same,"viability, T/C",compound 0.0316 µM,45% and 44.2%
same,"viability, T/C",compound 0.1 µM,29% and 22.6%
same,"viability, T/C",compound 0.316 µM,16.5% and 15.5%
same,"viability, T/C",compound 1 µM,4.57% and 6.27%
same,IC50,curve of compound,20.8 nM and 12.6 nM
CCc1c2c(nc3ccc(O)cc13)-c1cc3c(c(=O)n1C2)COC(=O)[C@]3(O)CC + CN1CCN(c2cc(C(=O)Nc3cc4cc(-c5cnn(C)c5)ccc4cn3)ccn2)CC1,IC50,[1],68.3 nM
same,IC50,[2],96 nM
same,IC50,[3],< 3.16 nM
same,IC50,[4],< 3.16 nM
same,IC50,[5],< 3.16 nM
same,IC50,[6],< 3.16 nM
same,"viability, T/C","second compound 0.0316 µM, first compound 0.00316 µM",104%
same,"viability, T/C","second compound 0.0316 µM, first compound 0.01 µM",91.3%
same,"viability, T/C",[7],73.8%
same,"viability, T/C",[8],39.2%
same,"viability, T/C",[9],16.6%
same,"viability, T/C",[10],13.1%
same,"viability, T/C","second compound 0.1 µM, first compound 0.00316 µM",152%
same,"viability, T/C","second compound 0.1 µM, first compound 0.01 µM",121%
same,"viability, T/C",[13],84%
same,"viability, T/C",[14],47.4%
same,"viability, T/C",[15],23.3%
same,"viability, T/C",[16],9.49%
same,"viability, T/C","second compound 0.316 µM, first compound 0.00316 µM",17.4%
same,"viability, T/C","second compound 0.316 µM, first compound 0.01 µM",17.4%
same,"viability, T/C",[19],18.3%
same,"viability, T/C",[20],13.1%
same,"viability, T/C",[21],5.94%
same,"viability, T/C",[22],5.35%
same,"viability, T/C","second compound 1 µM, first compound 0.00316 µM",1.34%
same,"viability, T/C","second compound 1 µM, first compound 0.01 µM",0.98%
same,"viability, T/C",[25],2.66%
same,"viability, T/C",[26],0.5%
same,"viability, T/C",[27],2.92%
same,"viability, T/C",[28],4.75%
same,"viability, T/C","second compound 3.16 µM, first compound 0.00316 µM",1.44%
same,"viability, T/C","second compound 3.16 µM, first compound 0.01 µM",1.88%
same,"viability, T/C",[31],0.95%
same,"viability, T/C",[32],1.2%
same,"viability, T/C",[33],2.83%
same,"viability, T/C",[34],4.75%
same,"viability, T/C","second compound 10 µM, first compound 0.00316 µM",0.83%
same,"viability, T/C","second compound 10 µM, first compound 0.01 µM",0.62%
same,"viability, T/C",[37],2.12%
same,"viability, T/C",[38],0.62%
same,"viability, T/C",[39],6.02%
same,"viability, T/C",[40],4.41%
